Test results: ChEMBL document CHEMBL1143306, “3-amido-4-anilinoquinolines as CSF-1R kinase inhibitors 2: Optimization of the PK profile” (Bioorg Med Chem Lett, 2009)
Converted amounts (≈) assume the structure as drawn.

Columns and labels:
NIH3T3 = experiment: Antiproliferative activity against mouse 3T3 cells expressing human CSF1R after 72 hrs by Celltiter assay; format: functional
[1] = Aqueous solubility of the compound; format: physicochemical; details: buffer
[2] = Plasma protein binding assessed as percentage unbound
[3] = Bioavailability in rat at 3 mg/kg, iv and 10 mg/kg, po; format: ADME, organism-based; details: in vivo
[4] = Clearance in rat at 3 mg/kg, iv and 10 mg/kg, po; format: ADME, organism-based; details: in vivo
[5] = Volume of distribution at steady state in rat at 3 mg/kg, iv and 10 mg/kg, po; format: ADME, organism-based; details: in vivo, read-out: Vdss
[6] = Half life in rat at 3 mg/kg, iv and 10 mg/kg, po; format: ADME, organism-based; details: in vivo
Mus musculus [7] = experiment: Inhibition of phosphorylated CSF1R level in 3T3/CSF1R mutant cells xenografted nude mouse at 25 mg/kg, po after 2 hrs by ELISA; format: functional
Mus musculus [8] = experiment: Inhibition of phosphorylated CSF1R level in 3T3/CSF1R mutant cells xenografted nude mouse at 25 mg/kg, po after 6 hrs by ELISA; format: functional
[9] = target: Macrophage colony-stimulating factor 1 receptor (Homo sapiens, UniProt P07333); experiment: Inhibition of CSF1R
Sequence of Macrophage colony-stimulating factor 1 receptor (P07333 whole entry): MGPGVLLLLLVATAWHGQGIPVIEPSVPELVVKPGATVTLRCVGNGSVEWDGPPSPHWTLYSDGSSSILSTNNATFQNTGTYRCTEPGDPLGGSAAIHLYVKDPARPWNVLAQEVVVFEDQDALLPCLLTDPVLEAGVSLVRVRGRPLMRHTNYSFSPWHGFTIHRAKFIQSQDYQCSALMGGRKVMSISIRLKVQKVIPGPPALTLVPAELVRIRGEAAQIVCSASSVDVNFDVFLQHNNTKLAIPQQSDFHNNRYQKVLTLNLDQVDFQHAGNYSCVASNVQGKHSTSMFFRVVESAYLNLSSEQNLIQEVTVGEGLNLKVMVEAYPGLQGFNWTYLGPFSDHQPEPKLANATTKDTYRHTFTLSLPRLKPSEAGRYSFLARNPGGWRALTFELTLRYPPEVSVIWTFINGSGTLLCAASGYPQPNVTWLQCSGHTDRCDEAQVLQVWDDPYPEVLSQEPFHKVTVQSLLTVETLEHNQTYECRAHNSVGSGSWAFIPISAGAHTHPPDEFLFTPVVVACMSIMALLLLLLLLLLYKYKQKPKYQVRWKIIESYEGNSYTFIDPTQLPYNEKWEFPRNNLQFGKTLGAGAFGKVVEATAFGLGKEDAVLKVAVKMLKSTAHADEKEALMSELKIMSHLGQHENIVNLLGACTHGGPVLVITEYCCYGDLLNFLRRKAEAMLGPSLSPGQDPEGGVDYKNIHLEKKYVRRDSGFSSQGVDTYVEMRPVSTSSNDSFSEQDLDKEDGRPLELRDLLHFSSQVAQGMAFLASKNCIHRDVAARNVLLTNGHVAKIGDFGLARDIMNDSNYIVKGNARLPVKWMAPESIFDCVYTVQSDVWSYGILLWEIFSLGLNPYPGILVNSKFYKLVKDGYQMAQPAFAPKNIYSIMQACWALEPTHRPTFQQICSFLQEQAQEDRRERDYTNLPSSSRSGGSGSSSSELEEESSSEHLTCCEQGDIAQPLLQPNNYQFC

| SMILES | Activity (NIH3T3) | solubility [1] | fraction unbound [2] | bioavailability [3] | clearance [4] | Vd [5] | half-life [6] | inhibition in vivo at 25 mg/kg (Mus musculus [7]) | inhibition in vivo at 25 mg/kg (Mus musculus [8]) | IC50 [9] |
| --- | --- | --- | --- | --- | --- | --- | --- | --- | --- | --- |
| CCOc1cc2ncc(C(N)=O)c(Nc3cccc(Cl)c3Cl)c2cc1N1CCN(C(C)=O)CC1 | 0.07 µM | 2 µM (≈ 1 µg/mL) | 0.096 | 11% | 62 mL/min/kg | 2.3 L/kg | 0.65 h | 65% | 30% |  |
| CCOc1cc2ncc(C(N)=O)c(Nc3cccc(Cl)c3Cl)c2cc1N1CCN(CCOC)CC1 | 0.03 µM | 13 µM (≈ 6.74 µg/mL) | 0.017 |  |  |  |  |  |  |  |
| CN1CCN(c2ccc3ncc(C(N)=O)c(Nc4ccc(Cl)c(Cl)c4)c3c2)CC1 | 2.7 µM | 720 µM (≈ 310 µg/mL) | 0.058 |  |  |  |  |  |  | 59 nM |
| COCCOc1cc2ncc(C(N)=O)c(Nc3cccc(Cl)c3F)c2cc1N1CCN(C)CC1 | 0.1 µM | 910 µM (≈ 444 µg/mL) | 0.39 |  |  |  |  | 80% | 75% |  |
| CCOc1cc2ncc(C(N)=O)c(Nc3cccc(Cl)c3Cl)c2cc1N1CCN(CCO)CC1 | 0.03 µM | 67 µM (≈ 33.8 µg/mL) | 0.048 |  |  |  |  |  |  |  |
| CC(C)Oc1cc2ncc(C(N)=O)c(Nc3ccc(F)cc3F)c2cc1N1CCN(C)CC1 | 0.17 µM | 52 µM (≈ 23.7 µg/mL) | 0.017 | 40% | 7 mL/min/kg | 1.4 L/kg | 2.3 h | 100% | 50% |  |
| CCOc1cc2ncc(C(N)=O)c(Nc3ccc(F)cc3F)c2cc1N1CCCN(C)CC1 |  | 530 µM (≈ 241 µg/mL) | 0.31 | 16% | 32 mL/min/kg | 16 L/kg | 6.6 h | 90% | 55% |  |
| CC(C)Oc1cc2ncc(C(N)=O)c(Nc3ccc(Cl)c(Cl)c3)c2cc1N1CCN(C)CC1 | 0.12 µM | 250 µM (≈ 122 µg/mL) | 0.01 |  |  |  |  |  |  |  |
| CCOc1cc2ncc(C(N)=O)c(Nc3ccc(F)c(Cl)c3)c2cc1N1CCN(C)CC1 | 0.13 µM |  | 0.034 | 55% | 53 mL/min/kg | 9.3 L/kg | 2.2 h | 70% | 55% |  |
| CN1CCN(c2ccc3ncc(C(N)=O)c(Nc4ccc(Cl)cc4Cl)c3c2)CC1 | 8.9 µM | 180 µM (≈ 77.5 µg/mL) | 0.018 |  |  |  |  |  |  | 129 nM |
| COc1cc2c(Nc3cccc(Cl)c3Cl)c(C(N)=O)cnc2cc1N1CCN(C)CC1 | 0.17 µM | 220 µM (≈ 101 µg/mL) |  |  |  |  |  |  |  |  |
| CCOc1cc2ncc(C(N)=O)c(Nc3ccc(F)cc3F)c2cc1N1CCCN(C2CC2)CC1 | 0.27 µM | 100 µM (≈ 48.2 µg/mL) | 0.022 |  |  |  |  |  |  |  |
| CCOc1cc2ncc(C(N)=O)c(Nc3ccc(Cl)c(Cl)c3)c2cc1N1CCN(C)CC1 | 0.06 µM | 3 µM (≈ 1.42 µg/mL) |  | 42% | 47 mL/min/kg | 3.7 L/kg | 1.2 h | 80% | 40% |  |
| CCOc1cc2ncc(C(N)=O)c(Nc3ccc(F)cc3F)c2cc1N1CCN(C2CC2)CC1 | 0.66 µM | 150 µM (≈ 70.1 µg/mL) |  | 34% | 21 mL/min/kg | 0.6 L/kg | 0.9 h | 70% | 10% |  |
| CCOc1cc2ncc(C(N)=O)c(Nc3cccc(Cl)c3Cl)c2cc1N1CCN(C(=O)CO)CC1 | 0.09 µM | 29 µM (≈ 15 µg/mL) | 0.16 | 6% | 72 mL/min/kg | 2.2 L/kg | 0.66 h |  |  |  |
| CC(C)Oc1cc2ncc(C(N)=O)c(Nc3cccc(Cl)c3F)c2cc1N1CCN(C)CC1 | 0.21 µM | 790 µM (≈ 373 µg/mL) | 0.049 |  |  |  |  |  |  |  |
| CCOc1cc2ncc(C(N)=O)c(Nc3ccc(F)cc3F)c2cc1N1CCN(CC)CC1 | 0.17 µM | 320 µM (≈ 146 µg/mL) | 0.046 | 46% | 19 mL/min/kg | 3.6 L/kg | 2.3 h |  |  |  |
| CCOc1cc2ncc(C(N)=O)c(Nc3ccc(F)cc3F)c2cc1N1CCN(C(C)C)CC1 | 0.17 µM | > 1000 µM |  |  |  |  |  | 70% | 50% |  |
| COCCOc1cc2ncc(C(N)=O)c(Nc3ccc(C)cc3F)c2cc1N1CCN(C)CC1 |  | 63 µM (≈ 29.5 µg/mL) | 0.16 | 100% | 33 mL/min/kg | 8.6 L/kg | 3.4 h | 100% | 80% |  |

| SMILES | Activity (NIH3T3) | solubility [1] | fraction unbound [2] | bioavailability [3] | clearance [4] | Vd [5] | half-life [6] | inhibition in vivo at 25 mg/kg (Mus musculus [7]) | inhibition in vivo at 25 mg/kg (Mus musculus [8]) | IC50 [9] |
| --- | --- | --- | --- | --- | --- | --- | --- | --- | --- | --- |
| CCOc1cc2ncc(C(N)=O)c(Nc3cc(F)ccc3F)c2cc1N1CCN(C)CC1 | 0.11 µM | 71 µM (≈ 31.3 µg/mL) | 0.073 | 33% | 28 mL/min/kg | 2.9 L/kg | 1.3 h | 75% | 45% |  |
| COc1cc2ncc(C(N)=O)c(Nc3ccc(F)cc3F)c2cc1OC | 0.4 µM |  |  | 100% | 23 mL/min/kg | 0.9 L/kg | 0.6 h |  |  |  |
| CCOc1cc2ncc(C(N)=O)c(Nc3cccc(Cl)c3F)c2cc1N1CCN(C)CC1 | 0.11 µM | 10 µM (≈ 4.58 µg/mL) | 0.071 | 54% | 24 mL/min/kg | 1.9 L/kg | 1.1 h | 100% | 90% |  |
| CCOc1cc2ncc(C(N)=O)c(Nc3ccc(C)cc3F)c2cc1N1CCN(C)CC1 |  | 54 µM (≈ 23.6 µg/mL) |  | 46% | 10 mL/min/kg | 1.8 L/kg | 2.3 h |  | 60% |  |
| COc1cc2c(Nc3ccc(F)cc3F)c(C(N)=O)cnc2cc1N1CCN(C)CC1 | 0.72 µM | > 1000 µM |  |  |  |  |  |  |  | 11 nM |
| CC(C)Oc1cc2ncc(C(N)=O)c(Nc3cccc(Cl)c3Cl)c2cc1N1CCN(C)CC1 | 0.05 µM | 200 µM (≈ 97.7 µg/mL) | 0.014 |  |  |  |  | 70% | 35% |  |
| CCOc1cc2ncc(C(N)=O)c(Nc3cccc(Cl)c3Cl)c2cc1N1CCN(C(C)C)CC1 | 0.02 µM | 250 µM (≈ 126 µg/mL) | 0.015 | 66% | 120 mL/min/kg | 11 L/kg | 1.2 h | 85% | 65% |  |
| CCOc1cc2ncc(C(N)=O)c(Nc3cccc(Cl)c3Cl)c2cc1N1CCCN(C)CC1 | 0.05 µM | 130 µM (≈ 63.5 µg/mL) | 0.019 | 100% | 63 mL/min/kg | 40 L/kg | 8.6 h | 90% | 95% |  |
| COCCOc1cc2ncc(C(N)=O)c(Nc3ccc(F)cc3F)c2cc1N1CCN(C)CC1 |  | 720 µM (≈ 339 µg/mL) | 0.46 | 100% | 68 mL/min/kg | 18 L/kg | 3.8 h | 100% | 70% |  |
| CCOc1cc2ncc(C(N)=O)c(Nc3cccc(Cl)c3Cl)c2cc1N1CCCN(C(C)C)CC1 | 0.02 µM | 420 µM (≈ 217 µg/mL) | 0.049 |  |  |  |  | 90% | 75% |  |
| CCOc1cc2ncc(C(N)=O)c(Nc3ccc(F)cc3F)c2cc1N1CCOCC1 | 0.48 µM | 64 µM (≈ 27.4 µg/mL) | 0.084 | 25% | 36 mL/min/kg | 1.1 L/kg | 0.6 h |  |  |  |
| CCOc1cc2ncc(C(N)=O)c(Nc3cc(C)ccc3F)c2cc1N1CCN(C)CC1 | 0.09 µM | 66 µM (≈ 28.9 µg/mL) |  | 88% | 28 mL/min/kg | 5.3 L/kg | 2.3 h | 90% | 80% |  |
| CCOc1cc2ncc(C(N)=O)c(Nc3cccc(Cl)c3Cl)c2cc1N1CCN(CC)CC1 | 0.02 µM | 11 µM (≈ 5.37 µg/mL) | 0.019 | 19% | 86 mL/min/kg | 6.8 L/kg | 1.2 h | 95% | 75% |  |
| COCCOc1cc2ncc(C(N)=O)c(Nc3cc(C)ccc3F)c2cc1N1CCN(C)CC1 | 0.17 µM |  | 0.16 | 45% | 60 mL/min/kg | 4.7 L/kg | 4.2 h | 85% | 70% |  |
| CCOc1cc2ncc(C(N)=O)c(Nc3ccc(F)cc3F)c2cc1N1CCC(O)CC1 |  | 2 µM (≈ 0.885 µg/mL) | 0.089 |  |  |  |  |  |  |  |
| COc1cc2ncc(C(N)=O)c(Nc3ccc(Cl)c(Cl)c3)c2cc1N1CCN(C)CC1 | 0.38 µM |  | 0.036 |  | 50 mL/min/kg | 3.8 L/kg | 1.2 h |  |  |  |
| COc1cc2c(Nc3ccc(Cl)c(Cl)c3)c(C(N)=O)cnc2cc1N1CCN(C)CC1 | 0.55 µM |  |  |  |  |  |  |  |  | 24 nM |
| COCCOc1cc2ncc(C(N)=O)c(Nc3cccc(Cl)c3Cl)c2cc1N1CCN(C)CC1 | 0.01 µM | 380 µM (≈ 192 µg/mL) | 0.1 | 32% | 290 mL/min/kg | 21 L/kg | 0.83 h | 100% | 80% |  |
